# Molecular target: T1, nhTMEM16 (Fusarium vanettenii, UniProt C7Z7K1)
# T1 construct: gene NECHADRAFT_66456; full open reading frame, N-terminal SBP-Myc-3C tag kept for scrambling assay; expressed in S. cerevisiae FGY217, purified in DDM, reconstituted into liposomes; homodimer
# T1 sequence (C7Z7K1 1-735): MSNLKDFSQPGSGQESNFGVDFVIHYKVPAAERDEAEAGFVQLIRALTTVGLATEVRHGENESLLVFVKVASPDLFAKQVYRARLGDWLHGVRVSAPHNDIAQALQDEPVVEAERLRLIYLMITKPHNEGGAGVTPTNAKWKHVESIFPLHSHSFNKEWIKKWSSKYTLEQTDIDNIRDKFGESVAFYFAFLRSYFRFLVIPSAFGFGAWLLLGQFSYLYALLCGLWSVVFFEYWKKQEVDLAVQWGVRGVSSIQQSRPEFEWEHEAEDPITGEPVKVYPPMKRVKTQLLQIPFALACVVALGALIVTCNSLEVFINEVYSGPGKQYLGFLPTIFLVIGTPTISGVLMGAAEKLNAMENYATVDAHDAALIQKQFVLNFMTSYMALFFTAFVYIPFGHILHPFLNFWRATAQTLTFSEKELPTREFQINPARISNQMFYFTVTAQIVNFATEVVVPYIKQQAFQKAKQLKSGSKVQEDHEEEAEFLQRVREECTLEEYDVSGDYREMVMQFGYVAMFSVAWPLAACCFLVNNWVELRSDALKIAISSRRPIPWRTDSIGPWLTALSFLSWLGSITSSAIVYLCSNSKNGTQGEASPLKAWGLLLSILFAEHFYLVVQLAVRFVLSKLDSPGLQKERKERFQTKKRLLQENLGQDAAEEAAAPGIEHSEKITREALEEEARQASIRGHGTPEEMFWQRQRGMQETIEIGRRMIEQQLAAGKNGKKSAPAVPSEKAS
# Experiment: proteoliposome scrambling assay, dithionite quenching of NBD fluorescence
# Type: biochemical
# Details: Ca2+-stimulated with basal activity without Ca2+; E. coli polar lipids/egg PC 3:1, pH 7.5, 300 mM KCl; labelled compound; lipid transport (flip-flop)
compound,measurement,value
CCCCCCCC/C=C\CCCCCCCC(=O)OC[C@H](COP(=O)(O)OCCN)OC(=O)CCCCCNc1ccc([N+](=O)[O-])c2nonc12 [18:1-06:0 NBD-PE],"proteoliposome scrambling assay, dithionite quenching of NBD fluorescence",Traces depict sections of the fluorescence decrease of tail-labeled NBD-PE lipids after addition of dithionite

# Reference: article PMC6414200, “Stepwise activation mechanism of the scramblase nhTMEM16 revealed by cryo-EM” (eLife, 2019)
